By IC50 is commonly meant the concentration needed to halve the response being measured. Low readings indicate inhibition by little substance, high ones a need for much substance.

We go through 15 compounds from ChEMBL document CHEMBL1914292, “Synthesis and in vitro cytotoxic activity of novel pyrazolo[3,4-d]pyrimidines and related pyrazole hydrazones toward breast adenocarcinoma MCF-7 cell line” (Bioorg Med Chem, 2011).

The test system of experiment [1] is MCF7. Kind of experiment: Induction of oxidative stress in human MCF7 cells assessed as hydrogen peroxide level per mg of protein at 1/10 of IC50 after 24 hrs (reference value: 15.7 +/- 1.6 nmol). The class given is functional.
In experiment [2] the test system is MCF7. Kind of experiment: Cytotoxicity against human MCF7 cells assessed as protein level per 10 '6 cells at 1/10 of IC50 after 24 hrs (reference value: 110.5 +/- 12.3 ug). The class given is functional.
For experiment [3], the system named is MCF7. The experiment in a line: Cytotoxicity against human MCF7 cells after 48 hrs by SRB colorimetric assay. The class given is functional, cell-based. To be noted: MCF7, 48 h.
Experiment [4] concerns MCF7. The experiment in a line: Induction of oxidative stress in human MCF7 cells assessed as catalase activity per mg of protein at 1/10 of IC50 after 24 hrs (reference value: 7.6 +/- 0.7 U). The format is functional.
The subject of experiment [5] is MCF7. Kind of experiment: Induction of oxidative stress in human MCF7 cells assessed as glutathione peroxidase activity per mg of protein at 1/10 of IC50 after 24 hrs (reference value: 9.3 +/- 1 U). The class given is functional.
Experiment [6] concerns MCF7. The experiment in a line: Induction of oxidative stress in human MCF7 cells assessed as GSH level per mg of protein at 1/10 of IC50 after 24 hrs (reference value: 40 +/- 5 nmol). The format is functional.
The test system of experiment [7] is MCF7. Kind of experiment: Cytotoxicity against human MCF7 cells assessed as RNA level per 10 '6 cells at 1/10 of IC50 after 24 hrs (reference value: 15.3 +/- 1.6 ug). The class given is functional.
Experiment [8] relates to MCF7. The experiment in a line: Induction of oxidative stress in human MCF7 cells assessed as superoxide dismutase activity per mg of protein at 1/10 of IC50 after 24 hrs (reference value: 40.3 +/- 4.75 U). The class given is functional.
Experiment [9] concerns MCF7. Kind of experiment: Cytotoxicity against human MCF7 cells assessed as nitric oxide level per mg protein at 1/10 of IC50 after 24 hrs (reference value: 1.9 +/- 0.16 umol). The format is functional.
For experiment [10], the system named is MCF7. Kind of experiment: Cytotoxicity against human MCF7 cells assessed as DNA level per 10 '6 cells at 1/10 of IC50 after 24 hrs (reference value: 8.5 +/- 0.8 ug). The format is functional.

Turning to `COc1cc(/C=N/n2c(C)nc3c(cnn3S(=O)(=O)c3ccc(Cl)cc3)c2=O)cc(OC)c1OC`, the Activity was found to be 27.8 nmol in the experiment with MCF7 [1]; 78.3 µg in the experiment on MCF7 [2]; 4.3 U in the experiment with MCF7 [4]; 6.8 U in the experiment with MCF7 [5]; 34.2 nmol in the experiment with MCF7 [6]; 7.22 µg in the experiment with MCF7 [7]. Moreover, the Activity with MCF7 [8] was found to be 80 U; in the experiment on MCF7 [9], 2.8 µmol; in the experiment on MCF7 [10], 5.3 µg. For the same compound, half-maximal inhibition in the experiment on MCF7 [3] (IC50) was put at 27.8 µM.
As for `COc1cc(C(=O)Nn2c(C)nc3c(cnn3S(=O)(=O)c3ccc(Cl)cc3)c2=O)cc(OC)c1OC`, inhibition with MCF7 [3] was half-maximal at 35.8 µM (IC50).
On the same count and under the same terms, the value for `Cc1nc2c(cnn2S(=O)(=O)c2ccc(Cl)cc2)c(=O)n1/N=C/c1ccccc1` was 22.4 µM; that for `COc1ccc(/C=N/NC(=O)c2cn[nH]c2NC(C)=O)cc1OC` was 37.1 µM; that for `Cc1nc2c(cnn2-c2ccccc2)c(=O)n1-c1cnc2ccccc2c1` was 1.53 µM.
On to `COc1ccc(/C=N/n2c(C)nc3c(cnn3-c3ccc(Cl)cc3)c2=O)cc1`, for which the Activity in the experiment with MCF7 [1] was determined as 24.8 nmol; in the experiment with MCF7 [2] it was 80.2 µg; in the experiment with MCF7 [4], 7.4 U; in the experiment with MCF7 [5], 8 U; in the experiment with MCF7 [6], 36.3 nmol; with MCF7 [7] it was 12 µg. Moreover, the Activity with MCF7 [8] worked out at 50 U; in the experiment on MCF7 [9], 2.9 µmol; in the experiment on MCF7 [10], 7 µg. Moreover, the IC50 in the experiment on MCF7 [3] was 38.6 µM.
As for `COc1cc(/C=N/n2c(C)nc3c(cnn3-c3ccc(Cl)cc3)c2=O)ccc1O`, the Activity was found to be 39.4 nmol with MCF7 [1]; 42.6 µg with MCF7 [2]; 3.5 U in the experiment on MCF7 [4]; 5.4 U with MCF7 [5]; 23.5 nmol in the experiment on MCF7 [6]; 3.2 µg in the experiment with MCF7 [7]. Also, the Activity in the experiment with MCF7 [8] was 100.3 U; in the experiment with MCF7 [9], 3.6 µmol; in the experiment with MCF7 [10], 4.5 µg. This compound displayed an IC50 in the experiment with MCF7 [3] of 19.8 µM.
Compound `COc1ccc(/C=N/n2c(C)nc3c(cnn3S(=O)(=O)c3ccc(Cl)cc3)c2=O)cc1OC` yielded an IC50 in the experiment with MCF7 [3] of 33.6 µM.
On the same count and under the same terms, the value for `CC(=O)Nc1[nH]ncc1C(=O)N/N=C/c1ccccc1` was 42 µM.
Same read-out and setting: the value for `COc1ccc(/C=N/n2c(C)nc3c(cnn3-c3ccc(Cl)cc3)c2=O)cc1OC` was 25 µM; that for `COc1ccc(/C=N/NC(=O)c2cn[nH]c2NC(C)=O)cc1` was 61.7 µM; that for `COc1ccc(/C=N/n2c(C)nc3c(cnn3S(=O)(=O)c3ccc(Cl)cc3)c2=O)cc1` was 41.9 µM.
Take `COc1cc(/C=N/n2c(C)nc3c(cnn3-c3ccc(Cl)cc3)c2=O)cc(OC)c1OC`: the Activity with MCF7 [1] turned out to be 53.3 nmol; with MCF7 [2], 27.5 µg; with MCF7 [4], 2.2 U; in the experiment with MCF7 [5] it was 4.85 U; in the experiment with MCF7 [6], 17.8 nmol; in the experiment on MCF7 [7] it was 2.6 µg. In addition, the Activity in the experiment with MCF7 [8] turned out to be 110 U; in the experiment with MCF7 [9], 4.4 µmol; in the experiment with MCF7 [10], 3 µg. This compound also yielded a half-inhibitory concentration (IC50) in the experiment on MCF7 [3] of 7.6 µM.
For the compound `Cc1nc2c(cnn2-c2ccc(Cl)cc2)c(=O)n1/N=C/c1ccccc1`, the Activity in the experiment on MCF7 [1] was found to be 30 nmol; in the experiment on MCF7 [2] it was 55.4 µg; in the experiment on MCF7 [4], 3.82 U; in the experiment with MCF7 [5], 6 U; in the experiment with MCF7 [6], 30.4 nmol; in the experiment on MCF7 [7], 5 µg. Also, the Activity with MCF7 [8] was 95.25 U; in the experiment with MCF7 [9] it was 3 µmol; in the experiment with MCF7 [10] it was 5.11 µg. In the experiment on MCF7 [3], this compound registered an IC50 of 23.1 µM.
With `COc1cc(/C=N/NC(=O)c2cn[nH]c2NC(C)=O)cc(OC)c1OC`, the Activity in the experiment with MCF7 [1] was 25.6 nmol; in the experiment with MCF7 [2] it was 85.8 µg; with MCF7 [4], 5.85 U; in the experiment with MCF7 [5], 7.33 U; in the experiment on MCF7 [6] it was 30.11 nmol; in the experiment on MCF7 [7], 8.8 µg. Moreover, the Activity in the experiment on MCF7 [8] amounted to 75.44 U; with MCF7 [9] it was 3 µmol; with MCF7 [10], 6.1 µg. Moreover, the IC50 with MCF7 [3] was 32.1 µM.
